Laboratory results published in patent US10570097B2, “Antimicrobial imidazolium compounds” (AGENCY FOR SCIENCE, TECHNOLOGY AND RESEARCH, priority 2014, dated 2020).
Where two headings read alike, the source gives them in different places.

Key:
E. coli [1] = assay: Minimum inhibitory concentration by microdilution assay; assay type: cell-based, Escherichia coli (ATCC 25922); settings: for MIC E. coli: 37° C., 24 h
Description: (§1) Staphylococcus aureus (ATCC 6538, gram-positive), Escherichia coli (ATCC 25922, gram-negative), Pseudomonas aeruginosa (gram-negative), and Candida albicans (ATCC 10231, yeast) were used as representative microorganisms to challenge the antimicrobial functions of the imidazolium salts. All bacteria and yeast were stored frozen at −80° C., and were grown overnight at 37° C. in Tryptic Soy broth (TSB) prior to experiments. Yeast was grown overnight at 22° C. in Yeast Mold (YM) broth. Subsamples of these cultures were grown for 3 h further and diluted to give an optical density value of 0.07 at 600 nm, corresponding to 3×10^8 CFU mL^−1 (MacFarland's Standard).
(§2) The oligomer compounds were dissolved in PBS at a concentration of 1 mg mL^1 and the minimal inhibitory concentrations (MICs) were determined by microdilution assay. Typically, a 100 μL microbial solutions (containing 3×10^8 cells mL^−1) were added to 100 μL of PBS containing the test imidazolium salts (normally ranging from […] in serial two-fold dilutions) in each well of the 96-well microtiter plate. The plates were incubated at 37° C. for 24 h with shaking at 300 rpm, with monitoring at the 2, 4, 6, 8, and 24 h time points. […] Broth and PBS solution containing microbial cells alone were used as negative controls, and experiments were run in triplicates.

[2] = Gelling properties in solvents (tube inversion test); assay type: physicochemical
Description: Gels were prepared by weighing the imidazolium oligomer compounds directly into 4 mL glass vials and subsequently adding a known weight or volume of the solvent. The vials containing both the imidazolium and the solvent were either vortexed or sonicated to ensure that the imidazolium was dissolved and dispersed thoroughly before being placed in a 4° C. fridge overnight. The tube inversion test method was used to examine gel formation in different solvents.

[3] = tested on: rat red blood cells (RBCs); assay: Hemolysis; assay type: cell-based
Description: Before these materials can be used in systemic applications, selectivity of these materials for microbial cells over mammalian cells should also be considered. Such selectivity is often determined by observation of hemolysis. Hemolysis was performed in the following manner, fresh rat red blood cells (RBCs) were diluted with PBS buffer to give an RBC stock suspension (4 vol % blood cells). A 100 μL aliquot of RBC stock was added to a 96-well plate containing […] oligomer compound stock solutions of various concentrations (serial 2-fold dilution in PBS). After 1 h incubation at 37° C., The contents of each well was pipetted into a microcentrifuge tube and then centrifuged at 4000 rpm for 5 min. Hemolytic activity was determined as a function of hemoglobin release by measuring OD576 of […] of the supernatant. A control solution that contained only PBS was used as a reference for 0% hemolysis. 100% hemolysis was measured by adding 0.5% Triton-X to the RBCs. [formula] The selectivity of the materials was also further assessed, by calculating the selectivity indices (SI), a measure and a comparison of safety and efficacies of each oligomer compound. […] Herein, the more stringent control of HC10 value was chosen over the HC50 value often reported in literature.

C. Albicans = assay: Minimum inhibitory concentration by microdilution assay; assay type: cell-based, Candida albicans (ATCC 10231); settings: 24 h
Description: as §1, §2

E. coli [4] = assay: Time kill kinetics; assay type: cell-based, Escherichia coli
Description: Time kill studies of the soligome compounds against E. coli were also studied. The experimental setup for time kill kinetics was similar to the set up for MBC determination. The microbes were treated with oligomer compounds at 4MIC concentration, and samples were taken out of each well at 2 minutes. 500 μl of cell suspension was removed, rescued by a series of 10-fold dilutions with growth medium, and kept on ice until plating. For plating, 50 μl to 200 μl of the diluted samples was spread on growth medium agar plates and colonies were counted after overnight incubation at 37° C.

S. aureus = assay: Minimum inhibitory concentration by microdilution assay; assay type: cell-based, Staphylococcus aureus (ATCC 6538); settings: 37° C., 24 h
Description: as §1, §2

P. aeruginosa = assay: as above; assay type: cell-based, Pseudomonas aeruginosa; settings: 37° C., 24 h
Description: as §1, §2

[5] = tested on: 4 microbes (S. aureus, E. coli, P. aeruginosa, C. Albicans); assay: MIC over the 4 microbes tested (geometric mean); assay type: cell-based; settings: geometric mean of the MICs of the 4 microbes
Description: Staphylococcus aureus (ATCC 6538, gram-positive), Escherichia coli (ATCC 25922, gram-negative), Pseudomonas aeruginosa (gram-negative), and Candida albicans (ATCC 10231, yeast) were used as representative microorganisms to challenge the antimicrobial functions of the imidazolium salts. All bacteria and yeast were stored frozen at −80° C., and were grown overnight at 37° C. in Tryptic Soy broth (TSB) prior to experiments. Yeast was grown overnight at 22° C. in Yeast Mold (YM) broth. […] Typically, a 100 μL microbial solutions (containing 3×10^8 cells mL^−1) were added to 100 μL of PBS containing the test imidazolium salts (normally ranging from […] in serial two-fold dilutions) in each well of the 96-well microtiter plate. The plates were incubated at 37° C. for 24 h with shaking at 300 rpm, with monitoring at the 2, 4, 6, 8, and 24 h time points. […] Broth and PBS solution containing microbial cells alone were used as negative controls, and experiments were run in triplicates. The selectivity of the materials was also further assessed, by calculating the selectivity indices (SI), a measure and a comparison of safety and efficacies of each oligomer compound. […] Herein, the more stringent control of HC10 value was chosen over the HC50 value often reported in literature.

[6] = Critical micellar concentration (pyrene fluorescent probe); assay type: physicochemical; settings: for CMC in PBS: PBS buffer solution; for CMC in DI H2O: deionised water
Description: The CMC values of the oligomer compounds were determined in both deionised (DI) water and PBS, using a LS50B luminescence spectrometer (Perkin Elmer, United States) and employing pyrene as a fluorescent probe. A known weight of the oligomer compound was dissolved in either 2 mL of DI water or PBS in a 4 mL glass vial and serial dilutions were effected. 10 μL of pyrene stock solution in acetone (6.16×10^-5 M) was added to each vial containing 1 mL of a known concentration of the oligomer compound, and the acetone was then evaporated at room temperature. The solution was allowed to equilibrate overnight and the final concentration of pyrene in each vial was 6.16×10^-7 M. The excitation spectra of the solutions were scanned from 300 to 360 nm with an emission wavelength of 395 nm, and both the excitation and emission bandwidths were set at 2.5 nm. The intensity ratios ([…]/[…]) were plotted against polymer concentration. The CMC value was given by the intersection of the tangent to the curve at the inflection and the tangent of the points at low polymer concentrations.

[7] = lowest concentration that induces 10% or more hemolysis, rat RBCs, 1 h, 37° C., maximum tested 100,000 ppm

Row | Compound | State in solvent ([2]; Acetone) | State in solvent ([2]; Acetonitrile) | Concentration to form gel ([2]; EtOH) | State in solvent ([2]; EtOH) | State in solvent ([2]; Ethylene glycol) | State in solvent ([2]; Glycerol) | Concentration to form gel ([2]; nBuOH) | State in solvent ([2]; nBuOH) | Concentration to form gel ([2]; nPrOH) | State in solvent ([2]; nPrOH) | MIC C.A. (C. Albicans) | MIC S.A. (S. aureus) | MIC P.A. (P. aeruginosa) | MIC GM [5] | MIC E. coli (E. coli [1]) | CMC in PBS [6] | CMC in DI H2O [6] | HC10 [3, 7] | further results
1 | CCCCCCCC[n+]1ccn(C)c1.[Br-] [1-Methyl-3-octyl imidazolium bromide, reference compound] | – | – | – | – | – | – | – | – | – | – | – | – | – | – | – | – | – | – | MIC (E. coli [1]; Escherichia coli, Example 8, microbe not named, E. coli context): 1000 mg/L; MIC relative to Compound 2 (E. coli [1]; ratio of MIC to that of Compound 2): more than 100 times
2 | CCCCCCCCCC[n+]1ccn(Cc2ccc(C[n+]3ccn(Cc4ccc(C[n+]5ccn(Cc6ccccc6Cn6cc[n+](Cc7ccc(Cn8cc[n+](Cc9ccc(Cn%10cc[n+](CCCCCCCCCC)c%10)cc9)c8)cc7)c6)c5)cc4)c3)cc2)c1.[Br-].[Br-].[Cl-].[Cl-].[Cl-].[Cl-] [Compound 3] | Insoluble | Insoluble | (12 wt %) | Gel | Solution | Solution | (7.9 wt %) | Gel | (7.9 wt %) | Gel | 31 mg/L | 4 mg/L | 8 mg/L | 9.44 mg/L | 8 mg/L | – | – | – | HC10 [3]: 500 ppm; fast killing in words (E. coli [4]; E. coli time kill): instantaneous elimination; % kill (E. coli [4]; E. coli, 4MIC, two minutes): >99.9%; Log reduction (E. coli [4]; E. coli, 4MIC, two minutes): 3.49; sharp point of inflection indicating the critical micellar concentrations ([6]; FIG. 4, deionized water): not observed
3 | CCCCCCCCCCCCCC[n+]1ccn(Cc2ccc(C[n+]3ccn(Cc4ccc(C[n+]5ccn(Cc6ccccc6Cn6cc[n+](Cc7ccc(Cn8cc[n+](Cc9ccc(Cn%10cc[n+](CCCCCCCCCCCCCC)c%10)cc9)c8)cc7)c6)c5)cc4)c3)cc2)c1.[Br-].[Br-].[Cl-].[Cl-].[Cl-].[Cl-] [Compound 5] | Insoluble | Insoluble | (12.9 wt %) | Gel | Solution | Solution | (5.3 wt %) | Gel | (5.3 wt %) | Gel | 31 mg/L | 4 mg/L | 16 mg/L | 13.35 mg/L | 16 mg/L | 4.9 ppm | 200.3 ppm | 15 ppm | –
4 | CCCCCCCCCCCCCCCC[n+]1ccn(Cc2ccc(C[n+]3ccn(Cc4ccc(C[n+]5ccn(Cc6ccccc6Cn6cc[n+](Cc7ccc(Cn8cc[n+](Cc9ccc(Cn%10cc[n+](CCCCCCCCCCCCCCCC)c%10)cc9)c8)cc7)c6)c5)cc4)c3)cc2)c1.[Br-].[Br-].[Cl-].[Cl-].[Cl-].[Cl-] [Compound 6] | Insoluble | Insoluble | (9.6 wt %) | Gel | opaque gels and Gel | opaque gels and Gel | (6.9 wt %) | Gel | (6.9 wt %) | Gel | 62 mg/L | 8 mg/L | 16 mg/L | 18.88 mg/L | 16 mg/L | 1.3 ppm | 38.5 ppm | 15 ppm | Concentration to form gel ([2]; Ethylene glycol): (4.7 wt %); Concentration to form gel ([2]; Glycerol): (6.3 wt %)
5 | [Br-].[Br-].[Cl-].[Cl-].[Cl-].[Cl-].c1ccc(Cn2cc[n+](Cc3ccc(Cn4cc[n+](Cc5ccc(Cn6cc[n+](CC7CCCCC7)c6)cc5)c4)cc3)c2)c(Cn2cc[n+](Cc3ccc(Cn4cc[n+](Cc5ccc(Cn6cc[n+](CC7CCCCC7)c6)cc5)c4)cc3)c2)c1 [Compound 7] | – | – | – | – | – | – | – | – | – | – | 31 mg/L | 8 mg/L | 16 mg/L | 15.87 mg/L | 16 mg/L | – | – | 12500 ppm | Gel formation ([2]; any of the solvents): not able to form gels
